Assays:
[1] = target: T1, prostate-specific membrane antigen (PSMA) (Homo sapiens, UniProt Q04609); test: fluorescence saturation binding ([…]) with rhPSMA; IC50 from […]H-NAAG radioenzymatic assay; type: biochemical
T1 construct: gene FOLH1; extracellular domain of human PSMA (rhPSMA; amino acids 44–750)

[2] = target: T1, prostate-specific membrane antigen (PSMA); test: X-ray crystal structure ([…] Å); fluorescence saturation binding; IC50 from […]H-NAAG radioenzymatic assay; type: biochemical

T1 sequence (Q04609 44-750): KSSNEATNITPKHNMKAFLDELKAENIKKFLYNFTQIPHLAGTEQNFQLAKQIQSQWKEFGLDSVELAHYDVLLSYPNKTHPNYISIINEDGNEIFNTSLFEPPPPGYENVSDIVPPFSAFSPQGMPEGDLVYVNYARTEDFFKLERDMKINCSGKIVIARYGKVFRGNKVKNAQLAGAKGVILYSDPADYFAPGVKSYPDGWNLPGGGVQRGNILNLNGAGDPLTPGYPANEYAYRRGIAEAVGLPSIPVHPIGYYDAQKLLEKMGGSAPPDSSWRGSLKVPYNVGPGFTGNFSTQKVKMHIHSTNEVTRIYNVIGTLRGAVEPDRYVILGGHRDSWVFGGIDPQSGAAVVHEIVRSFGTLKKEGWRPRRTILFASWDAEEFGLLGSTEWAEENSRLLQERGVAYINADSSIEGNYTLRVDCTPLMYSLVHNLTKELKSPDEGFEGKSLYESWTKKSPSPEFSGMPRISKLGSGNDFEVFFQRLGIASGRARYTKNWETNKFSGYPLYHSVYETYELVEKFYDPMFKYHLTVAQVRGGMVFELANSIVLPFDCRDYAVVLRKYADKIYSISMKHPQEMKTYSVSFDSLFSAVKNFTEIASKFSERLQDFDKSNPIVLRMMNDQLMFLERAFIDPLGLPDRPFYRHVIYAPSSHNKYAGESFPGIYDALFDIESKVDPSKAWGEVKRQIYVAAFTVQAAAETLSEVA

Compound	IC50 [1]	IC50 [2]
COC(=O)CCN1CCCc2cc(C=C(C#N)C(=O)NCCCC[C@H](NC(=O)N[C@@H](CNC(=O)C(=O)O)C(=O)O)C(=O)O)ccc21 [ODAP-436, (4 S,8 S)-15-cyano-16-(1-(3-methoxy-3-oxopropyl)-1,2,3,4-tetrahydroquinolin-6-yl)-1,6,14-trioxo-2,5,7,13-tetraazahexadec-15-ene-1,4,8-tricarboxylic acid]	0.118 nM	–
COC(=O)CCN1CCCc2cc(-c3ccc(C=C(C#N)C(=O)NCCCC[C@H](NC(=O)N[C@@H](CNC(=O)C(=O)O)C(=O)O)C(=O)O)s3)ccc21 [ODAP-490, (4 S,8 S)-15-cyano-16-(5-(1-(3-methoxy-3-oxopropyl)-1,2,3,4-tetrahydroquinolin-6-yl)thiophen-2-yl)-1,6,14-trioxo-2,5,7,13-tetraazahexadec-15-ene-1,4,8-tricarboxylic acid]	0.0996 nM	–
COC(=O)CCN1CCCc2cc(-c3ccc(C=C(C#N)C(=O)NCCCC[C@H](NC(=O)N[C@@H](CCC(=O)O)C(=O)O)C(=O)O)s3)ccc21 [Glu-490, (((S)-1-carboxy-5-(2-cyano-3-(5-(1-(3-methoxy-3-oxopropyl)-1,2,3,4-tetrahydroquinolin-6-yl)thiophen-2-yl)acrylamido)pentyl)carbamoyl)-L-glutamic acid]	–	0.0631 nM

— article PMC8443597, “A prostate-specific membrane antigen activated molecular rotor for real-time fluorescence imaging” (Nature Communications, 2021)
